Results reported in ChEMBL document CHEMBL1123742, “Isozyme-specific enzyme inhibitors. 13. S-[5'(R)-[(N-triphosphoamino)methyl]adenosyl]-L-homocysteine, a potent inhibitor of rat methionine adenosyltransferases” (J Med Chem, 1987).

Key:
Format in all cases: protein assay
[1] = target: T1, S-adenosylmethionine synthetase (MAT 1 and MAT 2) (Rattus norvegicus, UniProt P13444+P18298); assay: Inhibition constant of compound with Novikoff ascitic hepatoma (M-T) form of rat methionine adenosyltransferase when ATP was used as variable substrate;Competitive type of inhibition
[2] = target: T1, S-adenosylmethionine synthetase (MAT 1 and MAT 2); assay: Inhibition constant of compound with kidney (M-2) form of rat methionine adenosyltransferase when methionine was used as variable substrate;Simple non-competitive type of inhibition
[3] = target: T1, S-adenosylmethionine synthetase (MAT 1 and MAT 2); assay: Inhibition constant of compound with kidney (M-2) form of rat methionine adenosyltransferase when ATP was used as variable substrate;Competitive type of inhibition
[4] = target: T1, S-adenosylmethionine synthetase (MAT 1 and MAT 2); assay: Inhibition constant of compound with Novikoff ascitic hepatoma (M-T) form of rat methionine adenosyltransferase when methionine was used as variable substrate;Simple non-competitive type of inhibition

Ki [1] [µM] | Ki [2] [µM] | Ki [3] [µM] | Ki [4] [µM] | SMILES
 |  | 39 |  | Nc1ncnc2c1ncn2[C@@H]1O[C@H](C(CP(=O)(O)OP(=O)(O)OP(=O)(O)O)SCCC(N)C(=O)O)[C@@H](O)[C@H]1O (single isomer, unassigned; isomer A)
 |  | 180 |  | Nc1ncnc2c1ncn2[C@@H]1O[C@H](C(CP(=O)(O)OP(=O)(O)OP(=O)(O)O)SCCC(N)C(=O)O)[C@@H](O)[C@H]1O (single isomer, unassigned; isomer B)

The next lines start with the compound.

SMILES | Ki [1] [µM] | Ki [2] [µM] | Ki [3] [µM] | Ki [4] [µM]
Nc1ncnc2c1ncn2[C@@H]1O[C@H]([C@@H](CNP(=O)(O)OP(=O)(O)OP(=O)(O)O)SCCC(N)C(=O)O)[C@@H](O)[C@H]1O (some centres undefined) | 20 |  |  | 
Nc1ncnc2c1ncn2C1O[C@H](CCNP(=O)(O)OP(=O)(O)OP(=O)(O)O)[C@@H](O)[C@H]1O (some centres undefined) |  | 580 | 14 | 
Nc1ncnc2c1ncn2C1O[C@H]([C@H](CNP(=O)(O)OP(=O)(O)OP(=O)(O)O)SCCC(N)C(=O)O)[C@@H](O)[C@H]1O (some centres undefined) | 0.27 | 3 | 0.36 | 2.3
